In ChEMBL document CHEMBL1128212, “Synthesis and biological evaluation of substituted flavones as gastroprotective agents” (1995) one finds Protection, ED50 and Concentration (nM min-1 (mg of protein)-1) data, which are given here for 39 compounds.

Test [1] has as its system Rattus norvegicus. Briefly: Percent protection from gastric damage in rats relative to vehicle control following intraperitoneal administration of 20 mg/Kg. Format: functional, Stomach.
The test system of test [2] is Rattus norvegicus. Nature of the test: Gastroprotection percentage taken from rat indomethacin damage model at a dose 0.25 mg/kg administered orally. The following applies: route oral. Format: functional.
The species entered for test [3] is Rattus norvegicus. Briefly: The dose required to produce a 50% gastroprotection level relative to control. The test is classed as functional.
For test [4], the system named is Rattus norvegicus. Nature of the test: Compound was evaluated for its effect on rat liver microsomal cytochrome P450 by the change in its concentration at a dose of 100 mg/kg. Format: functional, organism-based. More on the design: dose 100 mg/kg.
In test [5] the test system is Rattus norvegicus. Nature of the test: Compound was evaluated for its effect on rat liver microsomal NADPH-[…] c reductase by the change in its concentration at a dose of 100 mg/kg. The test is classed as functional, organism-based. More on the design: dose 100 mg/kg. Background: Microsomes from liver hold many membrane-bound enzymes, among them those of drug oxidation.

Test [6] concerns Rattus norvegicus. Briefly: Compound was evaluated for its effect on rat liver microsomal cytochrome b5 by the change in its concentration at a dose of 100 mg/kg. The test is classed as functional, organism-based. Further details: dose 100 mg/kg.
The subject of test [7] is Rattus norvegicus. Nature of the test: Compound was evaluated for its effect on rat liver microsomal EROD(7-ethoxyresorufin O-dealkylase) by the change in its concentration at a dose of 100 mg/kg. The test is classed as functional, organism-based. Further details: dose 100 mg/kg.
Test [8] deals with Rattus norvegicus. Briefly: Compound was evaluated for its effect on rat liver microsomal cytochrome P450 by the change in its concentration at a dose of 250 mg/kg. Format: functional, organism-based. Further details: dose 250 mg/kg.
Test [9] deals with Rattus norvegicus. Nature of the test: Compound was evaluated for its effect on rat liver microsomal NADPH-[…] c reductase by the change in its concentration at a dose of 250 mg/kg. Format: functional, organism-based. More on the design: dose 250 mg/kg.
The test system of test [10] is Rattus norvegicus. Nature of the test: Compound was evaluated for its effect on rat liver microsomal EROD(7-ethoxyresorufin O-dealkylase) by the change in its concentration at a dose of 250 mg/kg. Format: functional, organism-based. More on the design: dose 250 mg/kg.
Test [11] concerns Rattus norvegicus. Briefly: Compound was evaluated for its effect on rat liver microsomal cytochrome b5 by the change in its concentration at a dose of 250 mg/kg. More on the design: dose 250 mg/kg. The test is classed as functional, organism-based.
Test [12] concerns Rattus norvegicus. Briefly: Compound was evaluated for its effect on rat liver microsomal cytochrome b5 by the change in its concentration at a dose of 268 mg/kg. More on the design: dose 268 mg/kg. The test is classed as functional, organism-based.
For test [13], the system named is Rattus norvegicus. Nature of the test: Gastroprotection percentage taken from rat indomethacin damage model at a dose 30 mg/kg administered orally. Format: functional. The conditions noted are these: route oral.
Test [14] deals with Rattus norvegicus. Nature of the test: Compound was evaluated for its effect on rat liver microsomal EROD(7-ethoxyresorufin O-dealkylase) by the change in its concentration at a dose of 268 mg/kg. Further details: dose 268 mg/kg. The test is classed as functional, organism-based.
For test [15], the system named is Rattus norvegicus. Briefly: Compound was evaluated for its effect on rat liver microsomal NADPH-[…] c reductase by the change in its concentration at a dose of 268 mg/kg. The test is classed as functional, organism-based. Further details: dose 268 mg/kg.
Test [16] has as its system Rattus norvegicus. Nature of the test: Compound was evaluated for its effect on rat liver microsomal cytochrome P450 by the change in its concentration at a dose of 268 mg/kg. The test is classed as functional, organism-based. Further details: dose 268 mg/kg.

The structures appear in SMILES notation.

As to `COc1cccc2oc(-c3ccc([N+](=O)[O-])cc3)cc(=O)c12`, in the test on Rattus norvegicus [1], the Protection is listed as 52%.
On to `CCCCC[C@H](O)/C=C/[C@H]1[C@H](O)CC(=O)[C@@H]1C/C=C\CCCC(=O)O` [DINOPROSTONE], for which the Protection in the test on Rattus norvegicus [1] is listed as 82%; with Rattus norvegicus [2] it was 61%.
`COc1ccc2c(=O)cc(-c3ccc(F)cc3)oc2c1` gave a Protection with Rattus norvegicus [1] of 67%. The ED50 (as a rule, the dose that gives a 50% effect, or the effect in half of the subjects) in the test filed under Rattus norvegicus [3] was 8.9 mg/kg.
For `COc1cccc2oc(-c3cccc(C(F)(F)F)c3)cc(=O)c12`, in that order: 90% and 3.3 mg/kg.
In the test with Rattus norvegicus [1], `Cc1ccc2c(=O)cc(-c3ccccc3)oc2c1` [7-METHYLFLAVONE] had a Protection of 90%. In the test filed under Rattus norvegicus [3], the ED50 is 5.6 mg/kg.
With `O=c1cc(-c2ccccc2)oc2ccc3ccccc3c12`, the Concentration (nM min-1 (mg of protein)-1) is 2.02 with Rattus norvegicus [4], 166 with Rattus norvegicus [5], 0.79 in the test with Rattus norvegicus [6] and 5010 in the test with Rattus norvegicus [7].
Compound `C=CCOc1cccc2oc(-c3ccccc3)cc(=O)c12` displayed a Protection with Rattus norvegicus [1] of 57%.
Same read-out and setting: in the case of `CCCCOc1cccc2oc(-c3ccccc3)cc(=O)c12` it was 75%; in that of `O=c1cc(-c2ccc(O)cc2)oc2ccccc12`, 63%.
Regarding `COc1ccc2c(=O)cc(-c3ccccc3)oc2c1` [7-METHOXYFLAVONE], the Concentration (nM min-1 (mg of protein)-1) in the test on Rattus norvegicus [8] was found to be 1.42; with Rattus norvegicus [9] it was 339; with Rattus norvegicus [10], 442; in the test with Rattus norvegicus [11], 0.73. In the test with Rattus norvegicus [1], this compound returned a Protection of 89%. The 50% effect level in the test listed under Rattus norvegicus [3] (ED50) was put at a dose of 5.9 mg/kg.
With `COc1ccc(-c2cc(=O)c3c(OC)cccc3o2)cc1`, the Protection in the test on Rattus norvegicus [1] amounted to 33%.
`COc1cccc2oc(-c3ccccc3)cc(=O)c12`: the Protection in the test on Rattus norvegicus [1] was 97%. In the test filed under Rattus norvegicus [3], this compound gave an ED50 of 2.6 mg/kg.
For the compound `COc1c(-c2ccccc2)oc2ccccc2c1=O`, the Protection in the test on Rattus norvegicus [1] worked out at 41%.
For `CCOc1cccc2oc(-c3ccccc3)cc(=O)c12`, in the test on Rattus norvegicus [1], the Protection is given as 36%.
With `O=c1cc(-c2ccccc2)oc2ccccc12` [FLAVONE], in the test with Rattus norvegicus [1], the Protection amounted to 93%. The same compound came in with an ED50 in the test listed under Rattus norvegicus [3] of 6.9 mg/kg.
In the case of `O=c1cc(-c2ccccc2)oc2ccc(O)cc12` [6-HYDROXYFLAVONE], in the test with Rattus norvegicus [1], the Protection worked out at 57%.
Still for that read-out and setting: then `Cc1ccc(-c2cc(=O)c3ccccc3o2)cc1`, with 68%; and `O=c1c(O)c(-c2ccccc2)oc2ccccc12` [FLAVONOL], with 47%.
Consider `COc1ccc(-c2cc(=O)c3ccccc3o2)cc1` [4'-METHOXYFLAVONE], for which the Protection in the test with Rattus norvegicus [1] came out at 21%.
Same read-out and setting: then `CCOc1ccc2c(=O)cc(-c3ccccc3)oc2c1`, with 87%.
Still for that read-out and setting: then `COc1cccc2oc(-c3ccccc3Cl)cc(=O)c12`, with 89%.
`COc1cccc2oc(-c3ccc(F)cc3)cc(=O)c12`: the Concentration (nM min-1 (mg of protein)-1) in the test on Rattus norvegicus [12] came out at 0.65; in the test with Rattus norvegicus [14] it was 1110; in the test with Rattus norvegicus [15], 275; with Rattus norvegicus [16], 1.17. For the same compound, the Protection turned out to be 97% with Rattus norvegicus [1] and 76% in the test on Rattus norvegicus [13]. The compound further registered an ED50 in the test listed under Rattus norvegicus [3] of 5.5 mg/kg.
In turn, `Cc1ccccc1-c1cc(=O)c2ccccc2o1` showed a Protection with Rattus norvegicus [1] of 92%.
On the same count and under the same terms, in the case of `CN/C(=N\CCSCc1nc[nH]c1C)NC#N` [CIMETIDINE] it was 14%; in that of `COc1ccc2oc(-c3ccccc3)cc(=O)c2c1` [6-METHOXYFLAVONE], 29%.
With `COc1ccc2c(=O)cc(-c3cccc(C(F)(F)F)c3)oc2c1`, the Protection with Rattus norvegicus [1] was found to be 67%.
The compound `O=c1cc(-c2cccc(O)c2)oc2ccccc12` gave a Protection with Rattus norvegicus [1] of 71%.
Still for that read-out and setting: in the case of `O=c1cc(-c2ccccc2)oc2cc(O)ccc12` [7-HYDROXYFLAVONE] it was 75%; in that of `COc1cccc2oc(-c3ccc(Cl)cc3)cc(=O)c12`, 94%; in that of `COc1cccc(-c2cc(=O)c3ccccc3o2)c1`, 48%.
Compound `COc1cccc2oc(-c3ccc(C(F)(F)F)cc3)cc(=O)c12` yielded a Protection with Rattus norvegicus [1] of 65%.
In the test on Rattus norvegicus [1], `COc1cccc2c(=O)cc(-c3ccccc3)oc12` [8-METHOXYFLAVONE] showed a Protection of 53%.
The compound `COc1ccc2c(=O)cc(-c3ccccc3Cl)oc2c1` came in with a Protection in the test with Rattus norvegicus [1] of 80%.
In the test with Rattus norvegicus [1], `O=c1cc(-c2ccccc2O)oc2ccccc12` had a Protection of 78%. The compound also registered an ED50 in the test listed under Rattus norvegicus [3] of 15.6 mg/kg.
Turning to `COc1ccccc1-c1cc(=O)c2ccccc2o1`, in the test with Rattus norvegicus [1], the Protection is recorded as 66%. The compound further displayed an ED50 in the test filed under Rattus norvegicus [3] of 22.4 mg/kg.
Turning to `O=c1cc(-c2ccccc2)oc2c(O)cccc12`, in the test on Rattus norvegicus [1], the Protection turned out to be 46%.
Same read-out and setting: then `O=c1cc(-c2ccccc2)oc2cccc(O)c12` [5-HYDROXYFLAVONE], with 58%.
Still for that read-out and setting: then `COc1cccc2oc(-c3ccc(C)cc3)cc(=O)c12`, with 93%; and `Cc1cccc2oc(-c3ccccc3)cc(=O)c12`, with 52%.
